# Experimental data: article PMC4731831, “Better than Nature: Nicotinamide Biomimetics That Outperform Natural Coenzymes” (Journal of the American Chemical Society, 2016)
# Molecular target: T1, TsOYE (Thermus scotoductus, UniProt B0JDW3)
# T1 construct: gene chrR; overexpressed ene reductase with FMN; construct only in supplement
# Assay: anaerobic stopped-flow flavin reduction
# Format: biochemical
# Conditions: apparent; reductive half-reaction; 50 mM MOPS pH 7.0, 5 mM CaCl2, 30 °C
# Excerpt: anaerobic stopped-flow flavin reduction on TsOYE
row,Structure (SMILES),Kd
1,"NC(=O)C1=CN(Cc2ccccc2)C=CC1 [compound 1, biomimetic 1]",227 ± 5 µM
2,NC(=O)C1=CN([C@@H]2O[C@H](COP(=O)(O)OP(=O)(O)OC[C@H]3O[C@@H](n4cnc5c(N)ncnc54)[C@H](O)[C@@H]3O)[C@@H](O)[C@H]2O)C=CC1 [NADH],8 ± 0.7 µM
3,NC(=O)C1=CN([C@@H]2O[C@H](COP(=O)(O)OP(=O)(O)OC[C@H]3O[C@@H](n4cnc5c(N)ncnc54)[C@H](OP(=O)(O)O)[C@@H]3O)[C@@H](O)[C@H]2O)C=CC1 [NADPH],9 ± 0.6 µM
4,"CCCCN1C=CCC(C(N)=O)=C1 [compound 2, biomimetic 2]",406 ± 12 µM
